Earlier results, collected in patent publication US20240366562A1, “GYNECOMASTIA AND/OR MASTALGIA TREATMENT” (priority 2021, published 2024).

How the values were obtained:
[1] = human subjects who ingested I3C
[2] = tested on: estrogen-dependent human MCF-7 breast cancer cell line
mammary tumors = details: rodents
estrogen receptor = molecular target: T1, estrogen receptor (Homo sapiens, UniProt P03372)
T1 sequence (P03372 1-595): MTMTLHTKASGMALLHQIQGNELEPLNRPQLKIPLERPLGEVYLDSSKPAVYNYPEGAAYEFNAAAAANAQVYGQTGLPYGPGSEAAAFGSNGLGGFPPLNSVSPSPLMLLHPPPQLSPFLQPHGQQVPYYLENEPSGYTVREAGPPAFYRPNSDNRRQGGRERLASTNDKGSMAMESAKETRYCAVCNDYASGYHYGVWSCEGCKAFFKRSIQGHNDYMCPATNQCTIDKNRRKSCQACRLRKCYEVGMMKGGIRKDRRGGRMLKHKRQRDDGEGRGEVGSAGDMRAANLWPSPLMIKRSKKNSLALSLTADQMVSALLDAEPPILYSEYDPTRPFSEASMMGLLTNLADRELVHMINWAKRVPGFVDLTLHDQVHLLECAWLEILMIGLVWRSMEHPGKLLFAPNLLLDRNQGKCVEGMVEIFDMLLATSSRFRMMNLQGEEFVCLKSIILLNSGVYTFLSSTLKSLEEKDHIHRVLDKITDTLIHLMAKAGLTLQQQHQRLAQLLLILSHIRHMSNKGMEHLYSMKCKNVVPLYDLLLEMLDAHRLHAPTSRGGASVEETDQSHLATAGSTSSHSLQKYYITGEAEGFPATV

[3] = women taking Tamoxifen

Competition with estrogen for estrogen receptor binding (estrogen receptor)	Tamoxifen metabolites [3]	SMILES	Side effects [1]	Competes with estrogen (estrogen pathway)	Enhances 2HE1 excretion (estrogen pathway)	Inhibits estrogen synthesis (estrogen pathway)	Lowers circulating estrogen (estrogen pathway)	Triggers degradation of ERα (estrogen pathway)	Expression of CDK6 [2]	Formation of spontaneous and carcinogen-induced mammary tumors (mammary tumors)	Side effects (mammary tumors)
fail to compete	–	OCc1c[nH]c2ccccc12 [Compound I3C, Indole-3-carbinole]	no side effects	no	yes	yes	yes	yes	down-regulates	reduce the formation	no apparent side effects
–	decreases in Tamoxifen metabolites	c1ccc2c(Cc3c[nH]c4ccccc34)c[nH]c2c1 [DIM, 3,3′-diindolylmethane]	–	–	–	–	–	–	–	–	–
–	–	CC/C(=C(\c1ccccc1)c1ccc(OCCN(C)C)cc1)c1ccccc1 [Tamoxifen, reference compound]	–	yes	no	no	no	no	–	–	–
